Data from PubChem BioAssay AID1963969 (Molecular Pharmacology Branch, DTP, NCI, 2024).

Tested on: 817829-284-R-J1-PDC multi-cell spheroid viability
Test: Anticancer human tumor 817829-284-R-J1-PDC patient-derived colon adenocarcinoma cell line growth inhibition [PI3K]
Conditions: for IC50: curve of first compound; for viability, T/C: stronger effect = lower value
Outline: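 Targeted small molecules plus PI3K inhibitors, half-log dose series from Cmax (default top 10 microM), were applied to heterotypic spheroids of cancer cells with HUVEC and MSCs. Viability indicated growth inhibition.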

[1] = second compound 0.00316 µM, first compound 0.0316 µM
[2] = second compound 0.00316 µM, first compound 0.1 µM
[3] = second compound 0.01 µM, first compound 0.0316 µM
[4] = second compound 0.01 µM, first compound 0.1 µM
[5] = second compound 0.0316 µM, first compound 0.0316 µM
[6] = second compound 0.0316 µM, first compound 0.1 µM
[7] = second compound 0.1 µM, first compound 0.0316 µM
[8] = second compound 0.1 µM, first compound 0.1 µM
[9] = second compound 0.316 µM, first compound 0.0316 µM
[10] = second compound 0.316 µM, first compound 0.1 µM
[11] = second compound 1 µM, first compound 0.0316 µM
[12] = second compound 1 µM, first compound 0.1 µM
[13] = second compound 0.0316 µM, first compound 0.316 µM
[14] = second compound 0.0316 µM, first compound 1 µM
[15] = second compound 0.0316 µM, first compound 3.16 µM
[16] = second compound 0.0316 µM, first compound 10 µM
[17] = second compound 0.1 µM, first compound 0.316 µM
[18] = second compound 0.1 µM, first compound 1 µM
[19] = second compound 0.1 µM, first compound 3.16 µM
[20] = second compound 0.1 µM, first compound 10 µM
[21] = second compound 0.316 µM, first compound 0.316 µM
[22] = second compound 0.316 µM, first compound 1 µM
[23] = second compound 0.316 µM, first compound 3.16 µM
[24] = second compound 0.316 µM, first compound 10 µM
[25] = second compound 1 µM, first compound 0.316 µM
[26] = second compound 1 µM, first compound 1 µM
[27] = second compound 1 µM, first compound 3.16 µM
[28] = second compound 1 µM, first compound 10 µM
[29] = second compound 0.00316 µM, first compound 0.316 µM
[30] = second compound 0.00316 µM, first compound 1 µM
[31] = second compound 0.00316 µM, first compound 3.16 µM
[32] = second compound 0.00316 µM, first compound 10 µM
[33] = second compound 0.01 µM, first compound 0.316 µM
[34] = second compound 0.01 µM, first compound 1 µM
[35] = second compound 0.01 µM, first compound 3.16 µM
[36] = second compound 0.01 µM, first compound 10 µM
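Further: spheroids exposed to agents for seven days before readout.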
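Wherever viability, T/C is given: percent of vehicle DMSO control viability which is 100%.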

Compound `CC(C)n1nc(-c2ccc3oc(N)nc3c2)c2c(N)ncnc21` + CC(Nc1ccc2c(c1)OCCn1cc(N3C(=O)OCC3C(F)F)nc1-2)C(N)=O has an IC50 (second compound 0.00316 µM) of 6.7 nM, an IC50 (second compound 0.01 µM) of 22.8 nM and an IC50 (second compound 0.0316 µM) of 8.64 nM. For the same compound, the IC50 (second compound 0.1 µM) was 4.55 nM, the IC50 (second compound 0.316 µM) was 4.35 nM and the IC50 (second compound 1 µM) was < 0.316 nM. For the same compound, the viability, T/C (second compound 0.00316 µM, first compound 0.000316 µM) was 112%, the viability, T/C (second compound 0.00316 µM, first compound 0.001 µM) was 51.6% and the viability, T/C (second compound 0.00316 µM, first compound 0.00316 µM) was 65.3%. It also gave a viability, T/C (second compound 0.00316 µM, first compound 0.01 µM) of 60.2%, a viability, T/C [1] of 27.9% and a viability, T/C [2] of 16.2%. For the same compound, the viability, T/C (second compound 0.01 µM, first compound 0.000316 µM) was 60.2%, the viability, T/C (second compound 0.01 µM, first compound 0.001 µM) was 63.8% and the viability, T/C (second compound 0.01 µM, first compound 0.00316 µM) was 69.5%. For the same compound, the viability, T/C (second compound 0.01 µM, first compound 0.01 µM) was 68.1%, the viability, T/C [3] was 43.9% and the viability, T/C [4] was 14.7%. For the same compound, the viability, T/C (second compound 0.0316 µM, first compound 0.000316 µM) was 114%, the viability, T/C (second compound 0.0316 µM, first compound 0.001 µM) was 73.1% and the viability, T/C (second compound 0.0316 µM, first compound 0.00316 µM) was 73.9%. For the same compound, the viability, T/C (second compound 0.0316 µM, first compound 0.01 µM) was 50.3%, the viability, T/C [5] was 28.1% and the viability, T/C [6] was 12.8%. For the same compound, the viability, T/C (second compound 0.1 µM, first compound 0.000316 µM) was 59.7%, the viability, T/C (second compound 0.1 µM, first compound 0.001 µM) was 38.7% and the viability, T/C (second compound 0.1 µM, first compound 0.00316 µM) was 76.4%. The viability, T/C (second compound 0.1 µM, first compound 0.01 µM) was 32%, the viability, T/C [7] was 32.1% and the viability, T/C [8] was 13.8%. For the same compound, the viability, T/C (second compound 0.316 µM, first compound 0.000316 µM) was 53.7%, the viability, T/C (second compound 0.316 µM, first compound 0.001 µM) was 68.9% and the viability, T/C (second compound 0.316 µM, first compound 0.00316 µM) was 48.7%. For the same compound, the viability, T/C (second compound 0.316 µM, first compound 0.01 µM) was 41.7%, the viability, T/C [9] was 22.2% and the viability, T/C [10] was 13.8%. For the same compound, the viability, T/C (second compound 1 µM, first compound 0.000316 µM) was 56.8%, the viability, T/C (second compound 1 µM, first compound 0.001 µM) was 30.8% and the viability, T/C (second compound 1 µM, first compound 0.00316 µM) was 38.3%. It also gave a viability, T/C (second compound 1 µM, first compound 0.01 µM) of 27.3%, a viability, T/C [11] of 79.8% and a viability, T/C [12] of 18.4%.
`C=CC(=O)N1CCN(c2nc(=O)n(-c3c(C)ccnc3C(C)C)c3nc(-c4c(O)cccc4F)c(F)cc23)C(C)C1` (stereo not drawn) + Cc1nc(NC(=O)N2CCCC2C(N)=O)sc1-c1ccnc(C(C)(C)C(F)(F)F)c1 was tested, and the IC50 (second compound 0.0316 µM) was > 10000 nM, the IC50 (second compound 0.1 µM) was 5980 nM and the IC50 (second compound 0.316 µM) was 6170 nM. The IC50 (second compound 1 µM) was 6270 nM, the IC50 (second compound 3.16 µM) was > 10000 nM and the IC50 (second compound 10 µM) was 56.5 nM. It also gave a viability, T/C [5] of 75.1%, a viability, T/C [6] of 75.8% and a viability, T/C [13] of 114%. For the same compound, the viability, T/C [14] was 77%, the viability, T/C [15] was 91% and the viability, T/C [16] was 54.7%. The viability, T/C [7] was 68.7%, the viability, T/C [8] was 70.2% and the viability, T/C [17] was 68.1%. It also gave a viability, T/C [18] of 53.5%, a viability, T/C [19] of 91.9% and a viability, T/C [20] of 33.6%. It also gave a viability, T/C [9] of 80.1%, a viability, T/C [10] of 63.8% and a viability, T/C [21] of 95.7%. The viability, T/C [22] was 55.7%, the viability, T/C [23] was 66% and the viability, T/C [24] was 41.2%. For the same compound, the viability, T/C [11] was 81.5%, the viability, T/C [12] was 65.3% and the viability, T/C [25] was 84.3%. It also gave a viability, T/C [26] of 63.1%, a viability, T/C [27] of 92.3% and a viability, T/C [28] of 31.4%. It also gave a viability, T/C (second compound 3.16 µM, first compound 0.0316 µM) of 71.2%, a viability, T/C (second compound 3.16 µM, first compound 0.1 µM) of 61.8% and a viability, T/C (second compound 3.16 µM, first compound 0.316 µM) of 55.3%. For the same compound, the viability, T/C (second compound 3.16 µM, first compound 1 µM) was 75.8%, the viability, T/C (second compound 3.16 µM, first compound 3.16 µM) was 85.2% and the viability, T/C (second compound 3.16 µM, first compound 10 µM) was 50.9%. For the same compound, the viability, T/C (second compound 10 µM, first compound 0.0316 µM) was 51.5%, the viability, T/C (second compound 10 µM, first compound 0.1 µM) was 49.2% and the viability, T/C (second compound 10 µM, first compound 0.316 µM) was 40.8%. The viability, T/C (second compound 10 µM, first compound 1 µM) was 51.6%, the viability, T/C (second compound 10 µM, first compound 3.16 µM) was 51.1% and the viability, T/C (second compound 10 µM, first compound 10 µM) was 37.4%.
`Cn1ncc(Cl)c1-c1cc(C(=O)NC(CN)Cc2cccc(F)c2)sc1Cl` (stereo not drawn) + COc1c(OCCCN2CCOCC2)ccc2c3n(c(=NC(=O)c4cnc(N)nc4)nc12)CCN3 gave an IC50 (second compound 0.00316 µM) of 73 nM, an IC50 (second compound 0.01 µM) of 79.9 nM and an IC50 (second compound 0.0316 µM) of 45.2 nM. The IC50 (second compound 0.1 µM) was < 31.6 nM, the IC50 (second compound 0.316 µM) was < 31.6 nM and the IC50 (second compound 1 µM) was < 31.6 nM. The viability, T/C [1] was 105%, the viability, T/C [2] was 29.4% and the viability, T/C [29] was 21.1%. It also gave a viability, T/C [30] of 20.9%, a viability, T/C [31] of 18.1% and a viability, T/C [32] of 15.5%. For the same compound, the viability, T/C [3] was 69.6%, the viability, T/C [4] was 46.2% and the viability, T/C [33] was 25.6%. For the same compound, the viability, T/C [34] was 25.9%, the viability, T/C [35] was 18.3% and the viability, T/C [36] was 10.8%. The viability, T/C [5] was 59%, the viability, T/C [6] was 31.2% and the viability, T/C [13] was 16.8%. For the same compound, the viability, T/C [14] was 20.9%, the viability, T/C [15] was 15.8% and the viability, T/C [16] was 10.5%. It also gave a viability, T/C [7] of 25.4%, a viability, T/C [8] of 25.4% and a viability, T/C [17] of 21.2%. For the same compound, the viability, T/C [18] was 15.2%, the viability, T/C [19] was 13.9% and the viability, T/C [20] was 10.3%. For the same compound, the viability, T/C [9] was 20.2%, the viability, T/C [10] was 23.4% and the viability, T/C [21] was 15.2%. The viability, T/C [22] was 12.2%, the viability, T/C [23] was 11.1% and the viability, T/C [24] was 8.71%. The viability, T/C [11] was 9.57%, the viability, T/C [12] was 11.1% and the viability, T/C [25] was 8.51%. It also gave a viability, T/C [26] of 9.47%, a viability, T/C [27] of 7.2% and a viability, T/C [28] of 8.41%.
Work on `CC1(C)CCC(CN2CCN(c3ccc(C(=O)NS(=O)(=O)c4ccc(NCC5CCOCC5)c([N+](=O)[O-])c4)c(Oc4cnc5[nH]ccc5c4)c3)CC2)=C(c2ccc(Cl)cc2)C1` + CC(Nc1ccc2c(c1)OCCn1cc(N3C(=O)OCC3C(F)F)nc1-2)C(N)=O yielded an IC50 (second compound 0.00316 µM) of 4080 nM, an IC50 (second compound 0.01 µM) of 3700 nM and an IC50 (second compound 0.0316 µM) of 2670 nM. The IC50 (second compound 0.1 µM) was 605 nM, the IC50 (second compound 0.316 µM) was 31.6 nM and the IC50 (second compound 1 µM) was 2790 nM. The viability, T/C [1] was 74.4%, the viability, T/C [2] was 87.8% and the viability, T/C [29] was 38.3%. It also gave a viability, T/C [30] of 71.4%, a viability, T/C [31] of 62.4% and a viability, T/C [32] of 5.89%. For the same compound, the viability, T/C [3] was 55.4%, the viability, T/C [4] was 64.8% and the viability, T/C [33] was 106%. It also gave a viability, T/C [34] of 69.1%, a viability, T/C [35] of 57.3% and a viability, T/C [36] of 5.49%. The viability, T/C [5] was 66.2%, the viability, T/C [6] was 107% and the viability, T/C [13] was 60.8%. The viability, T/C [14] was 65.3%, the viability, T/C [15] was 49.8% and the viability, T/C [16] was 6.29%. The viability, T/C [7] was 78.9%, the viability, T/C [8] was 54.8% and the viability, T/C [17] was 58.1%. The viability, T/C [18] was 39.4%, the viability, T/C [19] was 39.2% and the viability, T/C [20] was 3.75%. The viability, T/C [9] was 45.7%, the viability, T/C [10] was 44.6% and the viability, T/C [21] was 59.5%. For the same compound, the viability, T/C [22] was 41.2%, the viability, T/C [23] was 60.4% and the viability, T/C [24] was 3.08%. It also gave a viability, T/C [11] of 77.2%, a viability, T/C [12] of 44% and a viability, T/C [25] of 70.8%. The viability, T/C [26] was 59%, the viability, T/C [27] was 49% and the viability, T/C [28] was 6.25%.
